Test system: human CD8+ T cells
Experiment: Human T cells stimulated with αCD3/αCD28 in presence of UA
Format: cell-based
Method: Splenic murine T cells were isolated from mice aged 6-20 weeks by negative selection with EasySep mouse T cell isolation kit (Stem cell) according to the manufacturer's instructions. To monitor T cell proliferation, purified T cells were loaded with CellTrace Violet (C34557 ThermoFisher Scientific). T cell activation was initiated using αCD3/CD28 activation beads (11456D; ThermoFisher Scientific) at a ratio of 25 μl dynabeads per 0.5×106 T-cells. Cells were activated with 25-50 μM Urolithin A (Tocris) or DMSO in T cell activation Medium (RPMI (ThermoFisher Scientific) 10% FBS (South America origin), 10 mM Hepes (Sigma), 1×Non-Essential Amino Acid, 1 mM Sodium Pyruvate, 50 µM β-Mercaptoethanol, 100 U/mL penicillin, 100 μg/mL streptomycin and 2 mM Glutamax (ThermoFisher Scientific) for the indicated durations. In selected experiments, cells were stimulated in the presence of inhibitors, namely TCFli (ICG-001; SelleckChem; […]) and PGC-lai (SR-18292, Sigma-Aldrich; […]). For subsequent analysis, activating beads were magnetically removed prior antibody staining. For human T cells, peripheral blood mononuclear cells were purified with a Ficoll-Paque (GE healthcare) gradient. T cells were enriched with EasySep Human T Cell Isolation Kit (StemCell) and activated with dynabead Human T-Activator CD3/CD28 for T Cell Expansion and Activation Kit (11131D; ThermoFisher Scientific), similar to murine T cell stimulation. When the subsequent activation and expansion of CAR T cells was studied, plates were coated with 1 μg/mL anti-human CD3 (αCD3; clone OKT3) and thawed PBMC were cultivated with […] anti-human CD28 (αCD28; 15E8, both Miltenyi Biotec) containing media for three days. (NutriT media (4Cell® Nutri-T media (Sartorius) containing 0.5% penicillin/streptomycin) supplemented with IL-7 (25 U/mL) and IL-15 […] (all Miltenyi Biotec)).
Tumors were minced and digested with Tumor & Tissue Dissociation Reagent (BD Horizon) for 30 min. The remaining organ pieces were filtered through a 70 µm cell strainer. Cells were then washed with PBS 1% BSA and 2 mM EDTA. […]

`O=c1oc2cc(O)ccc2c2ccc(O)cc12` [UA, Urolithin A] was tested, and the “TCF1 expression in human CD8+ T cells” value (after 48 hours) was “increased”, the “mitochondrial membrane potential of human CD8+ T cells” value (after 48 hours) was “decreased” and the “frequency of human TSCM cells (CD45RA+CCR7HiCD62L+CD95+CD8+)” value (five out of five individual donors, 48 h) was “increased the frequency”.

Source: US20240139149A1, “THERAPEUTIC USES OF UROLITHIN DERIVATIVES” (Vandria SA, priority 2022, published 2024)
